The values below are quoted from earlier work in EP1110914A2, “Water treatment method and apparatus” (ROHM AND HAAS COMPANY, priority 1999, dated 2001).

Like-named read-outs stand apart in the source and are kept apart here.

For this data set the following is noted: in water.

As for `O=C=O` [CO2, carbon dioxide], where the note is “pressure 101 kPa (1 bar)”, the “CO2 Conc @ 15° C” value was 2,523 ppm, the “CO2 Conc @ 20° C” value is 2,174 ppm and the “CO2 Conc @ 25° C” value is 1,876 ppm. For the setting “pressure 507 kPa (5 bar)”, the “CO2 Conc @ 15° C” value is recorded as 12,613 ppm, the “CO2 Conc @ 20° C” value is 10,868 ppm and the “CO2 Conc @ 25° C” value was 9,381 ppm. For the same compound, under “pressure 931 kPa (9.2 bar)”, the “CO2 Conc @ 15° C” value is 23,207 ppm, the “CO2 Conc @ 20° C” value is recorded as 19,996 ppm and the “CO2 Conc @ 25° C” value is given as 17,261 ppm.
